Assay results as given in the supplement of paper PMC10307832.

Legend:
Assay in all cases: relative viability (nuclei count vs DMSO), 5 days (fraction); higher = more cells survive
[1] = compound: CC1=C(C=C(C=C1)NC(=O)C2=CC(=CC=C2)C(C)(C)C#N)NC3=CC4=C(C=C3)N=CN(C4=O)C [AZ628] + C[C@]1(O)C[C@@H](c2nc(-c3ccc4ccc(-c5ccccc5)nc4c3)c3c(N)nccn32)C1 [Linsitinib] (partner 1 µM)
Outline: (§1)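 Medians of duplicate plates are given as relative viability. That measure is the nuclei count in treated wells divided by the count in vehicle wells. Counts were taken on 4× images of lung cancer cell lines in 1536-well plates, 5 days after pin-tool dosing the day after seeding with one drug alone or a fixed anchor-drug dose plus five library-drug doses (not always all listed) in √10 steps.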

[2] = compound: C[As](C)SC[C@H](NC(=O)CC[C@H](N)C(=O)O)C(=O)NCC(=O)O [Darinaparsin] + COc1cccc2cc(-c3nc([C@H]4CC[C@H](C(=O)O)CC4)n4ncnc(N)c34)[nH]c12 [OSI-027] (partner 0.5 µM)
Outline: as §1

[3] = compound: C[As](C)SC[C@H](NC(=O)CC[C@H](N)C(=O)O)C(=O)NCC(=O)O [Darinaparsin] + NC(=O)Nc1cc(-c2cccc(F)c2)sc1C(=O)N[C@H]1CCCNC1 [AZD7762] (partner 0.2 µM)
Outline: as §1

[4] = compound: C[As](C)SC[C@H](NC(=O)CC[C@H](N)C(=O)O)C(=O)NCC(=O)O [Darinaparsin] + Nc1nc2[nH]cc(CCc3ccc(C(=O)N[C@@H](CCC(=O)O)C(=O)O)cc3)c2c(=O)[nH]1 [Pemetrexed] (partner 0.2 µM)
Outline: as §1

LU99A was tested, and the relative viability ([1]; first compound 0.08 µM) was 0.485, the relative viability ([1]; first compound 0.253 µM) was 0.444 and the relative viability ([1]; first compound 0.8 µM) was 0.686. For the same cell line, the relative viability ([1]; first compound 2.53 µM) was 0.678, the relative viability ([1]; first compound 8 µM) was 0.274 and the relative viability ([2]; first compound 0.08 µM) was 0.311. The relative viability ([2]; first compound 0.8 µM) was 0.298, the relative viability ([2]; first compound 2.53 µM) was 0.337 and the relative viability ([2]; first compound 8 µM) was 0.271. It also gave a relative viability ([3]; first compound 0.08 µM) of 0.455, a relative viability ([3]; first compound 0.8 µM) of 0.273 and a relative viability ([3]; first compound 2.53 µM) of 0.328. The relative viability ([3]; first compound 8 µM) was 0.383, the relative viability ([4]; first compound 0.08 µM) was 0.19 and the relative viability ([4]; first compound 0.8 µM) was 0.161. For the same cell line, the relative viability ([4]; first compound 2.53 µM) was 0.384 and the relative viability ([4]; first compound 8 µM) was 0.194.
Cell Line LXF-289 has a relative viability ([1]; first compound 0.08 µM) of 1.02, a relative viability ([1]; first compound 0.253 µM) of 0.949 and a relative viability ([1]; first compound 0.8 µM) of 0.932. The relative viability ([1]; first compound 2.53 µM) was 0.92, the relative viability ([1]; first compound 8 µM) was 0.589 and the relative viability ([2]; first compound 0.08 µM) was 0.849. For the same cell line, the relative viability ([2]; first compound 0.8 µM) was 0.786, the relative viability ([2]; first compound 2.53 µM) was 0.649 and the relative viability ([2]; first compound 8 µM) was 1.02. The relative viability ([3]; first compound 0.08 µM) was 1.15, the relative viability ([3]; first compound 0.8 µM) was 1.19 and the relative viability ([3]; first compound 2.53 µM) was 0.931. For the same cell line, the relative viability ([3]; first compound 8 µM) was 1.14, the relative viability ([4]; first compound 0.08 µM) was 0.888 and the relative viability ([4]; first compound 0.8 µM) was 0.962. For the same cell line, the relative viability ([4]; first compound 2.53 µM) was 0.894 and the relative viability ([4]; first compound 8 µM) was 0.965.
Work on NCI-H23 yielded a relative viability ([1]; first compound 0.08 µM) of 0.562, a relative viability ([1]; first compound 0.253 µM) of 0.481 and a relative viability ([1]; first compound 0.8 µM) of 0.28. For the same cell line, the relative viability ([1]; first compound 2.53 µM) was 0.376, the relative viability ([1]; first compound 8 µM) was 0.32 and the relative viability ([2]; first compound 0.08 µM) was 0.668. The relative viability ([2]; first compound 0.8 µM) was 0.579, the relative viability ([2]; first compound 2.53 µM) was 0.669 and the relative viability ([2]; first compound 8 µM) was 0.606. It also gave a relative viability ([3]; first compound 0.08 µM) of 0.226, a relative viability ([3]; first compound 0.8 µM) of 0.229 and a relative viability ([3]; first compound 2.53 µM) of 0.23. The relative viability ([3]; first compound 8 µM) was 0.247, the relative viability ([4]; first compound 0.08 µM) was 0.933 and the relative viability ([4]; first compound 0.8 µM) was 0.616. The relative viability ([4]; first compound 2.53 µM) was 0.643 and the relative viability ([4]; first compound 8 µM) was 0.74.
In the case of NCI-H322M, the relative viability ([1]; first compound 0.08 µM) is reported as 1.05, the relative viability ([1]; first compound 0.253 µM) is reported as 0.939 and the relative viability ([1]; first compound 0.8 µM) is reported as 1.01. The relative viability ([1]; first compound 2.53 µM) was 0.854, the relative viability ([1]; first compound 8 µM) was 0.662 and the relative viability ([2]; first compound 0.08 µM) was 0.611. It also gave a relative viability ([2]; first compound 0.8 µM) of 0.531, a relative viability ([2]; first compound 2.53 µM) of 0.545 and a relative viability ([2]; first compound 8 µM) of 0.573. The relative viability ([3]; first compound 0.08 µM) was 0.585, the relative viability ([3]; first compound 0.8 µM) was 0.42 and the relative viability ([3]; first compound 2.53 µM) was 0.488. The relative viability ([3]; first compound 8 µM) was 0.518, the relative viability ([4]; first compound 0.08 µM) was 0.695 and the relative viability ([4]; first compound 0.8 µM) was 0.582. The relative viability ([4]; first compound 2.53 µM) was 0.589 and the relative viability ([4]; first compound 8 µM) was 0.618.
NCI-H358 was tested, and the relative viability ([1]; first compound 0.08 µM) was 0.644, the relative viability ([1]; first compound 0.253 µM) was 0.622 and the relative viability ([1]; first compound 0.8 µM) was 0.66. The relative viability ([1]; first compound 2.53 µM) was 0.582, the relative viability ([1]; first compound 8 µM) was 0.398 and the relative viability ([2]; first compound 0.08 µM) was 0.988. It also gave a relative viability ([2]; first compound 0.8 µM) of 0.76, a relative viability ([2]; first compound 2.53 µM) of 0.846 and a relative viability ([2]; first compound 8 µM) of 0.793. For the same cell line, the relative viability ([3]; first compound 0.08 µM) was 0.478, the relative viability ([3]; first compound 0.8 µM) was 0.581 and the relative viability ([3]; first compound 2.53 µM) was 0.591. It also gave a relative viability ([3]; first compound 8 µM) of 0.522, a relative viability ([4]; first compound 0.08 µM) of 0.176 and a relative viability ([4]; first compound 0.8 µM) of 0.162. It also gave a relative viability ([4]; first compound 2.53 µM) of 0.172 and a relative viability ([4]; first compound 8 µM) of 0.18.
For NCI-H441, the relative viability ([1]; first compound 0.08 µM) was 0.64, the relative viability ([1]; first compound 0.253 µM) was 0.494 and the relative viability ([1]; first compound 0.8 µM) was 0.549. It also gave a relative viability ([1]; first compound 2.53 µM) of 0.425, a relative viability ([1]; first compound 8 µM) of 0.396 and a relative viability ([2]; first compound 0.08 µM) of 0.79. It also gave a relative viability ([2]; first compound 0.8 µM) of 0.719, a relative viability ([2]; first compound 2.53 µM) of 0.555 and a relative viability ([2]; first compound 8 µM) of 0.613. It also gave a relative viability ([3]; first compound 0.08 µM) of 1.2, a relative viability ([3]; first compound 0.8 µM) of 1.08 and a relative viability ([3]; first compound 2.53 µM) of 0.815. It also gave a relative viability ([3]; first compound 8 µM) of 1.13, a relative viability ([4]; first compound 0.08 µM) of 0.264 and a relative viability ([4]; first compound 0.8 µM) of 0.239. It also gave a relative viability ([4]; first compound 2.53 µM) of 0.279 and a relative viability ([4]; first compound 8 µM) of 0.246.
In the case of NCI-H460, the relative viability ([1]; first compound 0.08 µM) is reported as 0.74, the relative viability ([1]; first compound 0.253 µM) is reported as 0.694 and the relative viability ([1]; first compound 0.8 µM) is reported as 0.658. It also gave a relative viability ([1]; first compound 2.53 µM) of 0.523, a relative viability ([1]; first compound 8 µM) of 0.154 and a relative viability ([2]; first compound 0.08 µM) of 0.98. The relative viability ([2]; first compound 0.8 µM) was 0.753, the relative viability ([2]; first compound 2.53 µM) was 0.537 and the relative viability ([2]; first compound 8 µM) was 1.19. It also gave a relative viability ([3]; first compound 0.08 µM) of 0.806, a relative viability ([3]; first compound 0.8 µM) of 0.675 and a relative viability ([3]; first compound 2.53 µM) of 0.534. For the same cell line, the relative viability ([3]; first compound 8 µM) was 0.585, the relative viability ([4]; first compound 0.08 µM) was 0.0581 and the relative viability ([4]; first compound 0.8 µM) was 0.0587. The relative viability ([4]; first compound 2.53 µM) was 0.0655 and the relative viability ([4]; first compound 8 µM) was 0.0643.
For NCI-H596, the relative viability ([1]; first compound 0.08 µM) was 1.03, the relative viability ([1]; first compound 0.253 µM) was 1.12 and the relative viability ([1]; first compound 0.8 µM) was 0.982. For the same cell line, the relative viability ([1]; first compound 2.53 µM) was 1.1, the relative viability ([1]; first compound 8 µM) was 1.22 and the relative viability ([2]; first compound 0.08 µM) was 0.766. The relative viability ([2]; first compound 0.8 µM) was 0.845, the relative viability ([2]; first compound 2.53 µM) was 0.647 and the relative viability ([2]; first compound 8 µM) was 0.762. For the same cell line, the relative viability ([3]; first compound 0.08 µM) was 1.23, the relative viability ([3]; first compound 0.8 µM) was 1.13 and the relative viability ([3]; first compound 2.53 µM) was 0.98. It also gave a relative viability ([3]; first compound 8 µM) of 1.25, a relative viability ([4]; first compound 0.08 µM) of 0.513 and a relative viability ([4]; first compound 0.8 µM) of 0.533. For the same cell line, the relative viability ([4]; first compound 2.53 µM) was 0.479 and the relative viability ([4]; first compound 8 µM) was 0.508.
Work on NCI-H647 yielded a relative viability ([1]; first compound 0.08 µM) of 1.36, a relative viability ([1]; first compound 0.253 µM) of 1.27 and a relative viability ([1]; first compound 0.8 µM) of 1.07. For the same cell line, the relative viability ([1]; first compound 2.53 µM) was 1.19, the relative viability ([1]; first compound 8 µM) was 1.05 and the relative viability ([2]; first compound 0.08 µM) was 0.625. The relative viability ([2]; first compound 0.8 µM) was 0.59, the relative viability ([2]; first compound 2.53 µM) was 0.545 and the relative viability ([2]; first compound 8 µM) was 1.08. It also gave a relative viability ([3]; first compound 0.08 µM) of 0.81, a relative viability ([3]; first compound 0.8 µM) of 0.572 and a relative viability ([3]; first compound 2.53 µM) of 0.375. It also gave a relative viability ([3]; first compound 8 µM) of 0.534, a relative viability ([4]; first compound 0.08 µM) of 0.189 and a relative viability ([4]; first compound 0.8 µM) of 0.156. It also gave a relative viability ([4]; first compound 2.53 µM) of 0.166 and a relative viability ([4]; first compound 8 µM) of 0.146.
